In ChEMBL document CHEMBL5584241, “Discovery of new anti-diabetic potential agents based on paracetamol incorporating sulfa-drugs: Design, synthesis, α-amylase, and α-glucosidase inhibitors with molecular docking simulation” (Eur J Med Chem, 2024):

What was measured:
[1] = species on record: Homo sapiens; test: Inhibition of alpha-glucosidase (unknown origin) at 100 ug/ml using p-nitrophenyl-alpha-D-glucopyranoside as substrate incubated for 15 to 25 mins by spectrophotometric analysis relative to control; settings: dose 100.0 µg/ml, time 15-25 min
[2] = Inhibition of alpha-glucosidase (unknown origin) using p-nitrophenyl-alpha-D-glucopyranoside as substrate incubated for 15 to 25 mins by spectrophotometric analysis; set-up: species or system Homo sapiens
[3] = Inhibition of alpha-glucosidase (unknown origin); set-up: species or system Homo sapiens
[4] = biological target: T1, Alpha amylase (Homo sapiens, UniProt P0DUB6); test: Inhibition of alpha-amylase (unknown origin); format: protein assay
T1 sequence (P0DUB6 whole entry): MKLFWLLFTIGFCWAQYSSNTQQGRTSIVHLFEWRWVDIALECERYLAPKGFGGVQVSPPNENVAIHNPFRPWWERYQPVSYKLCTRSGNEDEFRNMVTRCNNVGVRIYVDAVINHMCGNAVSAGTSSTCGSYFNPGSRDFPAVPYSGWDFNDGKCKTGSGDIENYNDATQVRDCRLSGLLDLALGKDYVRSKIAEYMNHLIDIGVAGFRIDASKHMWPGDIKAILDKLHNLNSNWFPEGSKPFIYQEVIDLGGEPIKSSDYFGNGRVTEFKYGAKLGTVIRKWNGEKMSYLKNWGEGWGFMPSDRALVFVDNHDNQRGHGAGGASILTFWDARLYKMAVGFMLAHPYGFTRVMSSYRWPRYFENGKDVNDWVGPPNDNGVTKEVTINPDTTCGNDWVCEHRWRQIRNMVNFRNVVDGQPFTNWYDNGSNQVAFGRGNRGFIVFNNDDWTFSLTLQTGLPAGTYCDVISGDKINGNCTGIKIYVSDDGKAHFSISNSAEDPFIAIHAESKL

[5] = biological target: Maltase-glucoamylase (Homo sapiens, UniProt O43451); test: Inhibition of intestinal alpha-glucosidase (unknown origin) using p-nitrophenyl-alpha-D-glucopyranoside as substrate preincubated for 5 mins followed by substrate addition and measured after 5 mins by spectrophotometric analysis
Sequence of Maltase-glucoamylase (O43451 whole entry): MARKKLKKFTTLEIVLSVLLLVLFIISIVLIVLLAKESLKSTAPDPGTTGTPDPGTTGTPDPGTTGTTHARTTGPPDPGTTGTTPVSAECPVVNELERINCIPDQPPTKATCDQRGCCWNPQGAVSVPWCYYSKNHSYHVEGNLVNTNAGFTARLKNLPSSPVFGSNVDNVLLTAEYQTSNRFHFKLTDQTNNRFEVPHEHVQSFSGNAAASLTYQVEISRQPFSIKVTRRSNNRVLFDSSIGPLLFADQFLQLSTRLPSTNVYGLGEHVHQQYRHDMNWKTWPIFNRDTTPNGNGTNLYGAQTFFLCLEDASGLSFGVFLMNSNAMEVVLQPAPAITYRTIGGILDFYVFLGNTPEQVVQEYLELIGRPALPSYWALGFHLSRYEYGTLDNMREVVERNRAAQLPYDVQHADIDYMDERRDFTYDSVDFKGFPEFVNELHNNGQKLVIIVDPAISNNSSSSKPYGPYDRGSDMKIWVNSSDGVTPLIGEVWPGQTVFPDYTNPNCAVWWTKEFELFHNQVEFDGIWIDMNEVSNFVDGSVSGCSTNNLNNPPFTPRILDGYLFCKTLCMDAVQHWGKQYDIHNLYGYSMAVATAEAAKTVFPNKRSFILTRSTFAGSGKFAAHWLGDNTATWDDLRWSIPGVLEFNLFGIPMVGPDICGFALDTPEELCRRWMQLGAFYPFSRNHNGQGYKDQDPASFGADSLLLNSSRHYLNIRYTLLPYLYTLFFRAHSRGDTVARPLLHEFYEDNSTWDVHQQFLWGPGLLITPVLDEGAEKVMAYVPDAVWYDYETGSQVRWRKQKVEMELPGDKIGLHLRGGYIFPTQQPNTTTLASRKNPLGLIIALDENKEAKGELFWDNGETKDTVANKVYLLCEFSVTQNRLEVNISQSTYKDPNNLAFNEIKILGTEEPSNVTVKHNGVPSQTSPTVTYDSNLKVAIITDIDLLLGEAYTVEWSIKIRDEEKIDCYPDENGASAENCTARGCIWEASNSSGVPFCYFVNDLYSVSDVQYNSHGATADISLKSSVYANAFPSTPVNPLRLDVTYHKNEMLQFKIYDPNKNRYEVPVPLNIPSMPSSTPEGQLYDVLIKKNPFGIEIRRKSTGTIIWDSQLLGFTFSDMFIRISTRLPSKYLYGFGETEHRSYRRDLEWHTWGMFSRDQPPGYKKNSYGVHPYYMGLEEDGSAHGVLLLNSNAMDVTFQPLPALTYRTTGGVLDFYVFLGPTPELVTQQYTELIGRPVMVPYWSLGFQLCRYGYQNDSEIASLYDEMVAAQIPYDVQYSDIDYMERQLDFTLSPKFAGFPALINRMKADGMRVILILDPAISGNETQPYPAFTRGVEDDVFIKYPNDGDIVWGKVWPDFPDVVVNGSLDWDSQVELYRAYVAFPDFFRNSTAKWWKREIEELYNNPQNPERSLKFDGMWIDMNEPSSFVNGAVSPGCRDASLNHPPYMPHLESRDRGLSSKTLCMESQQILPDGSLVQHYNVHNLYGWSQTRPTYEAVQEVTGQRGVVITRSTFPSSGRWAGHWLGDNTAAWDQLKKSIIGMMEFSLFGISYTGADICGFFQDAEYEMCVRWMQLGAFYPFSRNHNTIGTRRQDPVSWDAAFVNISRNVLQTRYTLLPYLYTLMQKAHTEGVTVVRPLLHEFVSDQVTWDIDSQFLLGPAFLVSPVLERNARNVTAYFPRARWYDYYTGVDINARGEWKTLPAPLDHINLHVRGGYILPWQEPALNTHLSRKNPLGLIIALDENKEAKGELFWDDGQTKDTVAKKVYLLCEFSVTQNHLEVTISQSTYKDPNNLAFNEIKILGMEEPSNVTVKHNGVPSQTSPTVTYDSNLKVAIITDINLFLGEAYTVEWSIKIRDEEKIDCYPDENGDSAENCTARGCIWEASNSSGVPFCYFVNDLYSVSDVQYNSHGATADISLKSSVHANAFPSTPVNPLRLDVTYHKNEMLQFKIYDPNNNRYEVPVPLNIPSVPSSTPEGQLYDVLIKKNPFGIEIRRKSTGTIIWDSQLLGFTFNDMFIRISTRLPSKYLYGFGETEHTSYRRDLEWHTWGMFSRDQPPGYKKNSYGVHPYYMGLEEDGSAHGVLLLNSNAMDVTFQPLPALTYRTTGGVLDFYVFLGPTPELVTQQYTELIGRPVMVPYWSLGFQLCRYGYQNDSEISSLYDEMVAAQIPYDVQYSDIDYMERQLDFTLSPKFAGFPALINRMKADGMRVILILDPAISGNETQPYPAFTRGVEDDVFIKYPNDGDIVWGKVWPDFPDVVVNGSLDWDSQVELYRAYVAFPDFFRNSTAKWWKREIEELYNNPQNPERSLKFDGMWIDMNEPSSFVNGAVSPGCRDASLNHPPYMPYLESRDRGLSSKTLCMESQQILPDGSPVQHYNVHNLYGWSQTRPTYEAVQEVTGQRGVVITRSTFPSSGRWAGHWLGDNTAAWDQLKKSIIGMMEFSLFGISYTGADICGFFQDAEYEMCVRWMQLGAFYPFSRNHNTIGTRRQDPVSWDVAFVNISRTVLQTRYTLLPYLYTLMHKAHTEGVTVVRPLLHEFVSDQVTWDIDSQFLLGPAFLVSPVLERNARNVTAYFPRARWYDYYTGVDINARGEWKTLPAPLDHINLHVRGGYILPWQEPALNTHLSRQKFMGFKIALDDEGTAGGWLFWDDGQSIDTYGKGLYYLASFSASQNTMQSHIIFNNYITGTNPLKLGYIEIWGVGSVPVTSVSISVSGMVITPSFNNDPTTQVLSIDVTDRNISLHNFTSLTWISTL

inhibition [1] | IC50 [2] | IC50 [3] | IC50 [4] | IC50 [5] | SMILES
92.6% | 18.3 µM |  |  |  | CC(=O)Nc1ccc(O)c(/N=N/c2ccc(S(=O)(=O)Nc3cc(C)on3)cc2)c1
91% | 96.5 µM |  |  |  | CC(=O)Nc1ccc(O)c(/N=N/c2ccc(S(=O)(=O)NC(=N)N)cc2)c1
95.8% | 1.24 µM |  |  |  | C[C@H]1O[C@H](O[C@H]2[C@H](O)[C@@H](O)[C@@H](O[C@H]3[C@H](O)[C@@H](O)C(O)O[C@@H]3CO)O[C@@H]2CO)[C@H](O)[C@@H](O)[C@@H]1N[C@H]1C=C(CO)[C@@H](O)[C@H](O)[C@H]1O (stereo partly specified) [ACARBOSE]
93.4% | 44.1 µM |  |  |  | CC(=O)Nc1ccc(O)c(/N=N/c2ccc(S(=O)(=O)Nc3nccs3)cc2)c1
94.1% | 5.13 µM |  |  |  | CC(=O)Nc1ccc(O)c(/N=N/c2ccc(S(=O)(=O)Nc3nc(C)cc(C)n3)cc2)c1
 |  | 5.5 µM |  |  | O=[N+]([O-])c1ccc(-c2nnc(NS(=O)(=O)c3ccc(Cl)c(Cl)c3)s2)cc1
93.6% | 11 µM |  |  |  | CC(=O)Nc1ccc(O)c(/N=N/c2ccc(S(N)(=O)=O)cc2)c1
 |  |  | 2.4 µM |  | COc1ccccc1S(=O)(=O)Nc1nnc(-c2ccc([N+](=O)[O-])cc2)s1
95.7% | 1.39 µM |  |  |  | CC(=O)Nc1ccc(O)c(/N=N/c2ccc(S(=O)(=O)Nc3ncccn3)cc2)c1
 |  |  |  | 1.6 µM | O=S(=O)(NCCc1c[nH]c2ccccc12)c1cc(F)ccc1Cl
94.2% | 19.1 µM |  |  |  | CC(=O)Nc1ccc(O)c(/N=N/c2ccc(S(=O)(=O)Nc3ccc(Cl)nn3)cc2)c1
95.6% | 2.95 µM |  |  |  | CC(=O)Nc1ccc(O)c(/N=N/c2ccc(S(=O)(=O)Nc3noc(C)c3C)cc2)c1
